Key:
[1] = test system: ^14C-cholesterol absorption; assay: In vivo testing of cholesterol absorption inhibitors (A); conditions: Mus musculus, po; 0.2 μmol/kg, gavage, procedure A, C57BL/6 female mice
Procedure: In Vivo Testing of Cholesterol Absorption Inhibitors (A)
C57BL/6 female mice were maintained on regular chow diet and housed in individual cages to collect faeces. Mice were fasted for 3 hours and then gavaged with vehicle or compound. Half an hour later the mice were gavaged with radiolabelled cholesterol. Six hours after the ^14C-cholesterol gavage blood samples were taken via the tail and plasma prepared to determine how much cholesterol were absorbed. 24 hours after the gavage of ^14C-cholesterol the mice were bled and plasma were prepared for analysis. Faeces were collected for 24 hours to assess absorption efficiency.

Caco-2 cells = assay: Absorption in a Caco-2 cells model; type: in vitro ADME
Procedure: Absorption of the compounds of formula (I) was tested in a Caco-2 cells model (Gastroenterology 1989, 96, 736): […]

| Caco value (Caco-2 cells) | SMILES | inhibition at 0.2 µmol/kg [1] |
| --- | --- | --- |
|  | N[C@H](CCCCNC(=O)CNC(=O)COc1ccc([C@@H]2[C@@H](SCC(O)c3ccc(F)cc3)C(=O)N2c2ccc(F)cc2)cc1)C(=O)O (stereo partly drawn) [Example 10, N^6-(N-{[4-((2R,3R)-1-(4-fluorophenyl)-3-{[2-(4-fluorophenyl)-2-hydroxyethyl]thio}-4-oxoazetidin-2-yl)phenoxy]acetyl}glycyl)-D-lysine] | 38% |
| 0.61 ×10⁻⁶ cm/s | CC(=O)[O-].C[N+](C)(C)CCNC(=O)[C@@H](CC1CCCCC1)NC(=O)CNC(=O)COc1ccc([C@@H]2[C@@H](SCC(O)c3ccc(F)cc3)C(=O)N2c2ccc(F)cc2)cc1 (stereo partly drawn) [Example 17, N-{[4-((2R,3R)-1-(4-fluorophenyl)-3-{[(2R or $)-2-(4-fluorophenyl)-2-hydroxyethyl]thio}-4-oxoazetidin-2-yl)phenoxy]acetyl}glycyl-3-cyclohexyl-N-[2-(trimethylammonio)ethyl]-D-alaninamide acetate] |  |

— US20100168075A1, “Novel 2-Azetidinone Derivatives As Cholesterol Absorption Inhibitors For The Treatment Of Hyperlipidaemic Conditions” (ASTRAZENECA AB, priority 2005, published 2010)
